Data as given in patent US5770573A, “CS-1 peptidomimetics, compositions and methods of using the same” (Cytel Corporation, priority 1995, dated 1998).
Square brackets hold non-standard residues; d marks the D form. Peptide text beside a SMILES is read from it. * marks the point of attachment. Pyrazinecarbonyl = O=C(c1cnccn1)*; NMeF = CN[C@@H](Cc1ccccc1)C(=O)O; Cha = N[C@@H](CC1CCCCC1)C(=O)O; X15 = O=S(=O)(c1cccc2cccnc12)*; NMeL = CN[C@@H](CC(C)C)C(=O)O; X19 = O=C(Cc1ccc(Br)cc1)*; Morpholide = C1CN(*)CCO1; Nva = CCC[C@H](N)C(=O)O; NHDecyl = CCCCCCCCCCN*; PhAc = O=C(Cc1ccccc1)*; NHBn = c1ccc(CN*)cc1; Bz = O=C(c1ccccc1)*; OBn = c1ccc(CO*)cc1; X6 = O=C(O)CO*

target: VLA-4 (Homo sapiens, UniProt P05556+P13612); experiment: In vitro binding inhibition of 51Cr-labeled Jurkat cells to solid phase-bound CS-1 compound (SEQ ID NO:1); assay type: cell-based; parameters: inflammatory cells that contain the VLA-4 receptor [Jurkat cells; host or cells: Jurkat (human T lymphoblastic line); conditions: not given
Method: Binding inhibition is measured here as a concentration of compound that inhibits one-half the binding between a standard number of Jurkat cells and a standard amount of CS-1 compound bound to the surface of a microtiter plate well. Those concentrations are conveniently expressed as IC50 values, smaller numbers indicating a lower concentration required to inhibit 50 percent binding and therefore greater potency. Further specifics of this assay are provided hereinafter.
Jurkat cells (ATCC TIB 152), a human T lymphoblastic line, labeled with ^51 chromium were used to assay in vitro binding inhibition provided by various compounds discussed herein.
The plates were prepared as follows: The 25-mer CS-1 compound (SEQ ID NO:1) dissolved at 0.5-1 μg/ml in a buffer of 0.1M NaHCO3 at pH 9.5 that also contained 10 μg/ml of bovine serum albumin (BSA) or a conjugate of the CS-1 compound linked to […] (CS-1-OVA) dissolved at 1-2.5 μg/ml in the same buffer was used as the substrate. Each well of the microtiter plates was coated with 50 μl of substrate or buffer alone for controls. The wells were permitted to dry out completely and were then rinsed twice with PBS at pH 7.4. Non-specific binding sites of each well were then blocked using 200 μl per well of RPMI/1 percent BSA for two hours at room temperature.
Jurkat cells (3-5×10^6 cells) were placed into a 15 ml Falcon™ round-bottom tube with a cap. The tube was centrifuged, and the extra medium was then removed.
Two hundred microliters of a ^51 Cr labeling solution were added to the centrifuged cells and maintained in contact with the cells for 90-120 minutes in a warm room. […] Longer contact times provide a greater amount of labeling but lower cell viability.
The labeled cells are washed with (i) complete medium, (ii) 1 mM EDTA/PBS and then (iii) RPM1/1 percent BSA free of serum components. The cells are centrifuged after each washing. The cells are finally resuspended in serum-free RPMI/1 percent BSA at a concentration of 1×10^6 viable cells/ml, which provides a concentration that is diluted by one-half in the assay.
Inhibitor compounds are prepared as stock solutions at 20 mg/ml in DMSO in 1.5 ml cryogenic screwcap vials, and were stored at -70° C. Using Flow™ round-bottom or V-bottom microtiter plates, the inhibitor compounds were prepared at twice the assay concentration in RPMI/1 percent BSA at 60 μl/well.
Four initial dilutions were typically used.
The ^51 Cr-labeled cells ([…] at 60 μl/well) were then admixed with the diluted compound solutions. The admixtures were maintained at room temperature (about 22° C.) for 30 minutes.
One hundred microliters of each inhibitor compound/cell admixture were transferred to the substrate-coated wells. This was done in triplicate for each dilution. The resulting plates were incubated for 30 minutes at 37° C. and then washed gently three times with RPMI/1 percent BSA at 200 μl/well. Binding was observed microscopically, particularly after the second wash.
The bound cells were then lysed by the addition of a 0.5 percent solution of sodium dodecylsulfate in water at 100 μl/well. The resulting solutions were then processed for counting and calculation of IC50 values following usual procedures.
The data of Table 1 are normalized to the binding of SEQ ID NO: 3. […] Multiple assays for the same compound were averaged.

VLA-4, sequence (P13612 34-1032): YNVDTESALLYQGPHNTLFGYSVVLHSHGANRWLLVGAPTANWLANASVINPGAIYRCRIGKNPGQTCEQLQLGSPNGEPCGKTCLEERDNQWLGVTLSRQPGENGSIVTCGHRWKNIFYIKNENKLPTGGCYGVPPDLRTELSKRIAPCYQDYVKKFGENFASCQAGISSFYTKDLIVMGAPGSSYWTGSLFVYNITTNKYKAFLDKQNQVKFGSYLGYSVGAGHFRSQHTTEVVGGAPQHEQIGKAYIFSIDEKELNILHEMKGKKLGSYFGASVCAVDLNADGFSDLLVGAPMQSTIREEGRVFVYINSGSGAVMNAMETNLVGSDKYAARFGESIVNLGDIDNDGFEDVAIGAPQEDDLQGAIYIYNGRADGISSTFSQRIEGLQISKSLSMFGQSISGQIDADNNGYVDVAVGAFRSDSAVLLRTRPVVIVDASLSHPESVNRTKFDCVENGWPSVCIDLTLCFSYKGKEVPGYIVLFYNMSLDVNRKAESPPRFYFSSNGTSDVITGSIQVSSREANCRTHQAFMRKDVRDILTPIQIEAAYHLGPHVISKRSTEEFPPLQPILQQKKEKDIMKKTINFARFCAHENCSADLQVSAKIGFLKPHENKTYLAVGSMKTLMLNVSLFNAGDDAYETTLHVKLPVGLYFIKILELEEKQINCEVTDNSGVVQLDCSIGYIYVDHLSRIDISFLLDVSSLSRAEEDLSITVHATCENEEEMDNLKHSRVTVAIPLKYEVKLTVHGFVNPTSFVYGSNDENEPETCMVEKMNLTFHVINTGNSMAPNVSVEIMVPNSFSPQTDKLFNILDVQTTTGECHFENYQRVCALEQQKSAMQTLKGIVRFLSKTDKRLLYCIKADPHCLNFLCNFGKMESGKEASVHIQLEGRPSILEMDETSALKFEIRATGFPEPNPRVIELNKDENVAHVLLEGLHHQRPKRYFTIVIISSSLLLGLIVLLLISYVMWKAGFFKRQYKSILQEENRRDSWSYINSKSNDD
VLA-4, sequence (P05556 21-798): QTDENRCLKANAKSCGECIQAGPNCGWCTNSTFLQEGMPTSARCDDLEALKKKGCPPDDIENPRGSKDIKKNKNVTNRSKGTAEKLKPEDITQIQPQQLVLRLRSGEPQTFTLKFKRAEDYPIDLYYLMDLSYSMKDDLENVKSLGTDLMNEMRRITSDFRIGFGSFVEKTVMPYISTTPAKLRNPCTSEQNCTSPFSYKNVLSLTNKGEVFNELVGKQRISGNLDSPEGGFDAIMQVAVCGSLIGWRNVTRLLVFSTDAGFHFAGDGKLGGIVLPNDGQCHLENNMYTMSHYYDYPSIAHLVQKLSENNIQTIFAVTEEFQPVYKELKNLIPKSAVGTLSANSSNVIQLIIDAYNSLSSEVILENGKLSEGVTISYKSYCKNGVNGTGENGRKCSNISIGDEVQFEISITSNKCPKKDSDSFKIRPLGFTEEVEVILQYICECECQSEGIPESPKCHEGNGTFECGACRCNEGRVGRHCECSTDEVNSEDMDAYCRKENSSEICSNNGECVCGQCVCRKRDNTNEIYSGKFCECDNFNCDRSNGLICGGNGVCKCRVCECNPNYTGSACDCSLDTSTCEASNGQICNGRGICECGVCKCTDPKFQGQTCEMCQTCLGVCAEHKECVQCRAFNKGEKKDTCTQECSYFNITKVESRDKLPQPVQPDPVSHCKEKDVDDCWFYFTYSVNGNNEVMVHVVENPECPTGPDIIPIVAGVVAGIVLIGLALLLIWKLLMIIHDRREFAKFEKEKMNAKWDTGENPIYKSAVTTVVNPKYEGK

Row | Relative Potency | Structure (SMILES)
1 | .25 | CC(C)CC(CCCc1ccccc1)C(=O)N[C@@H](CC(=O)O)C(=O)N[C@@H](Cc1ccccc1)C(=O)N1CCC[C@@H]1C(N)=O (stereo partly shown) [1056.14]
2 | 0 | COc1ccc(CCCC(=O)N[C@@H](CC(=O)O)C(=O)N[C@@H](Cc2ccccc2)C(=O)N2CCC[C@@H]2C(N)=O)cc1OC [1056.02]
3 | .47 | CC(=O)N[C@@H](CC(C)C)C(=O)N[C@@H](CC(=O)O)C(=O)N[C@@H](Cc1ccccc1)C(N)=O [926.32] (Ac-Leu-Asp-Phe-NH2)
4 | 2.69 | NC(=O)[C@H]1CCCN1C(=O)[C@H](Cc1ccccc1)NC(=O)[C@H](CC(=O)O)NC(=O)[C@H](CC1CCCCC1)NC(=O)[C@@H](N)Cc1ccccc1 [896.30] (H-F[Cha]DF[dP]-NH2)
5 | .06 | CC[C@H](C)[C@H](N)C(=O)N(C)[C@@H](CC(C)C)C(=O)N[C@@H](CC(=O)O)C(=O)N[C@H](C(=O)N1CCC[C@H]1C(N)=O)C(C)C [926.11] (H-I[NMeL]DVP-NH2)
6 | 1.57 | CC(C)C[C@H](NS(=O)(=O)c1cccc2cccnc12)C(=O)N[C@@H](CC(=O)O)C(=O)N[C@@H](Cc1ccccc1)C(=O)N1CCC[C@@H]1C(N)=O [951.07] (X15-LDF[dP]-NH2)
7 | 6.57 | Cc1cccc(C(=O)N[C@@H](CC(C)C)C(=O)N[C@@H](CC(=O)O)C(=O)N[C@H](C(=O)N2CCC[C@@H]2C(N)=O)C(C)C)c1C [896.38]
8 | 2.27 | CC[C@H](C)[C@H](N)C(=O)N[C@@H](CC1CCCCC1)C(=O)N[C@@H](CC(=O)O)C(=O)N[C@@H](Cc1ccccc1)C(=O)N1CCC[C@@H]1C(N)=O [896.29] (H-I[Cha]DF[dP]-NH2)
9 | 6.26 | CC(C)C[C@H](NC(=O)Cc1ccc(Br)cc1)C(=O)N[C@@H](CC(=O)O)C(=O)N[C@@H](Cc1ccccc1)C(=O)N1CCC[C@@H]1C(N)=O [951.08] (X19-LDF[dP]-NH2)
10 | 5.38 | CC[C@H](C)[C@H](N)C(=O)N[C@@H](CC(C)C)C(=O)N[C@@H](CC(=O)O)C(=O)N[C@H](C(=O)N1CCC[C@@H]1C(N)=O)C(C)C [886.10]
11 | 35.4 | CC(=O)N[C@@H](Cc1ccccc1)C(=O)N[C@@H](CC(C)C)C(=O)N[C@@H](CC(=O)O)C(=O)N[C@@H](Cc1ccccc1)C(=O)N1CCC[C@@H]1C(N)=O [951.42] (Ac-FLDF[dP]-NH2)
12 | 5.63 | CC[C@H](C)[C@H](N)C(=O)N[C@@H](CC(C)C)C(=O)N[C@@H](CC(=O)O)C(=O)N[C@@H](Cc1ccccc1)C(=O)N1CCC[C@@H]1C(N)=O [896.26] (H-ILDF[dP]-NH2)
13 | .13 | CCC[C@H](NC(=O)[C@@H](N)[C@@H](C)CC)C(=O)N[C@@H](CC(=O)O)C(=O)N[C@H](C(=O)N1CCC[C@H]1C(N)=O)C(C)C [926.10] (H-I[Nva]DVP-NH2)
14 | 1.83 | CC[C@@H](C)[C@@H](N)C(=O)N[C@@H](CC(C)C)C(=O)N[C@@H](CC(=O)O)C(=O)N[C@H](C(=O)N1CCC[C@@H]1C(N)=O)C(C)C [926.03]
15 | 19.4 | CC(C)C[C@H](NC(=O)c1cnccn1)C(=O)N[C@@H](CC(=O)O)C(=O)N[C@@H](Cc1ccccc1)C(=O)N1CCC[C@@H]1C(N)=O [951.02] (Pyrazinecarbonyl-LDF[dP]-NH2)
16 | 38.1 | CC(C)C[C@H](NC(=O)c1cccnc1)C(=O)N[C@@H](CC(=O)O)C(=O)N[C@H](C(=O)N1CCC[C@@H]1C(N)=O)C(C)C [896.42]

Row | Structure (SMILES) | Relative Potency
17 | O=C(O)C[C@H](NC(=O)N(Cc1ccccc1)Cc1ccccc1)C(=O)N[C@@H](Cc1ccccc1)C(=O)N1CCCCC1 [1027.03] | 0
18 | CC(C)C[C@H](NCc1ccccc1)C(=O)N[C@@H](CC(=O)O)C(=O)N[C@@H](Cc1ccccc1)C(=O)N1CCCCC1 [1033.01] | 5.84
19 | CC(C)C[C@H](NC(=O)c1ccncc1)C(=O)N[C@@H](CC(=O)O)C(=O)N[C@@H](Cc1ccc(O)cc1)C(=O)N1CCCCC1 [1045.01] | 23.8
20 | CC(C)C[C@H](NC(=O)Cc1ccc(O)c(O)c1)C(=O)N[C@@H](CC(=O)O)C(=O)N[C@@H](Cc1ccccc1)C(=O)N1CCCCC1 [1019.01] | 81.4
21 | CC(C)CN(CCCc1ccccc1)C(=O)N[C@@H](CC(=O)O)C(=O)N[C@@H](Cc1ccccc1)C(=O)N1CCCCC1 [1027.02] | 0

same assay, conditions: binding inhibition potency relative to standard compound of SEQ ID NO:3 = 1 (normalized IC50); about one-tenth or less assigned zero

Row | Structure (SMILES) | Relative Potency
22 | CC(C)C[C@H](NC(=O)Cc1ccccc1)C(=O)N[C@@H](CC(=O)O)C(=O)N(C)[C@@H](Cc1ccccc1)C(=O)N1CCC[C@@H]1C(N)=O [1190.05] (PhAc-LD[NMeF][dP]-NH2) | 0
23 | CC(C)C[C@H](NC(=O)Cc1ccccc1)C(=O)N[C@@H](CC(=O)O)C(=O)NCc1ccccc1 [997.02] (PhAc-Leu-Asp-NHBn) | 18.8
24 | CC(C)C[C@H](NC(=O)Cc1ccccc1)C(=O)N[C@@H](CC(=O)O)C(=O)N[C@@H](Cc1ccccc1)C(=O)N1CCS(=O)(=O)CC1 [1111.03] | 1010
25 | CC(C)C[C@H](NC(=O)Cc1ccccc1)C(=O)N[C@@H](CC(=O)O)C(=O)N[C@@H](Cc1ccccc1)C(=O)N1CCSCC1 [1111.02] | 450
26 | CC(C)C[C@H](NC(=O)Cc1ccccc1)C(=O)N[C@@H](CC(=O)O)C(=O)N[C@@H](Cc1ccccc1)C(=O)N1CCN(CCC(=O)O)CC1 [1190.03] | 998
27 | CC(C)C[C@H](NC(=O)Cc1ccccc1)C(=O)N[C@@H](CC(=O)O)C(=O)NC1Cc2ccccc2N(CCN2CCOCC2)C1=O (stereo partly shown) [997.18] | 20
28 | O=C(O)C[C@H](NC1CCN(C(=O)Cc2ccccc2)CC1)C(=O)N[C@@H](Cc1ccccc1)C(=O)N1CCCC1 [992.01] | 0
29 | CC(C)C[C@H](NC(=O)Cc1ccccc1)C(=O)N[C@@H](CC(=O)O)C(=O)N1CCc2ccccc2C1 [997.09] | 3.13
30 | CC(C)C[C@H](NC(=O)c1ccccc1)C(=O)N[C@@H](CC(=O)O)C(=O)N[C@@H](Cc1ccccc1)C(=O)N1CCC[C@@H]1C(N)=O [896.28] (Bz-LDF[dP]-NH2) | 44.6
31 | CC(C)C[C@H](NC(=O)Cc1ccccc1)C(=O)N[C@@H](CC(=O)O)C(=O)N[C@@H](Cc1ccccc1)C(=O)NCC(=O)N1CCOCC1 [1051.04] (PhAc-LDFG-Morpholide) | 3.13
32 | CC(C)C[C@H](NC(=O)Cc1ccccc1)C(=O)NC(C(=O)N[C@@H](Cc1ccccc1)C(=O)N1CCCCC1)C(C(=O)O)C(=O)O (stereo partly shown) [1026.04] | 2.32
33 | CC(C)C[C@H](NC(=O)c1ccccc1)C(=O)N[C@@H](CC(=O)O)C(=O)N[C@H](C(=O)N1CCC[C@@H]1C(N)=O)C(C)C [926.02] | 9.6
34 | CC(C)C[C@H](NC(=O)Cc1ccccc1)C(=O)N[C@@H](CP(=O)(O)O)C(=O)N[C@@H](Cc1ccccc1)C(=O)N1CCCCC1 [1026.07] | 0
35 | CC(C)CN(CC(=O)Nc1ccccc1)C(=O)CN(CC(=O)O)C(=O)CN(Cc1ccccc1)C(=O)C1CCCC1 [1032.02] | .63
36 | CC(C)C[C@H](NC(=O)Cc1ccccc1)C(=O)N[C@@H](CC(=O)O)C(=O)NCCN1CCOCC1 [997.03] | 12.5
37 | CC(C)[C@H](NC(=O)[C@H](CC(=O)O)NC(=O)[C@H](CC1CCCCC1)NC(=O)c1ccccc1)C(=O)N1CCC[C@@H]1C(N)=O [896.34] (Bz-[Cha]DV[dP]-NH2) | 6.73

same assay, conditions: relative to SEQ ID NO:3 = 1; potency before the prodrug compound is enzymatically converted to an active form

Row | Structure (SMILES) | Relative Potency (prodrug compound)
38 | CCCCCCCCCCNC(=O)[C@@H]1CCCN1C(=O)[C@H](Cc1ccccc1)NC(=O)[C@H](CC(=O)O)NC(=O)[C@H](CC(C)C)NC(=O)Cc1ccccc1 [1068.04] (PhAc-LDFP-NHDecyl) | 2.13
39 | CC(C)C[C@H](NC(=O)Cc1ccccc1)C(=O)N[C@@H](CC(=O)OCc1ccccc1)C(=O)N[C@@H](Cc1ccccc1)C(=O)N1CCC[C@@H]1C(N)=O [1068.07] (PhAc-LD(OBn)F[dP]-NH2) | 0
40 | CC(C)C[C@H](NC(=O)Cc1ccccc1)C(=O)N[C@@H](CC(=O)OCC(=O)O)C(=O)N[C@@H](Cc1ccccc1)C(=O)N1CCC[C@@H]1C(N)=O [1067.02] (PhAc-LD(X6)F[dP]-NH2) | .81
